Experimental data reported in patent US12630547B2, “RAS protein degraders, pharmaceutical compositions thereof, and their therapeutic applications” (BioTheryX, Inc., priority 2019, dated 2026).

What was measured:
Format in all cases: cell-based
MOLM-13 cells = assay: Cell viability assay (CELLTITER-GLO), MOLM-13 cells; conditions: Table 2, compound at 10 μM, 3 days; for viability at 10 µM: Homo sapiens, MOLM-13, 72 h, read-out: Effect on MOLM-13 cell viability (% DMSO)
Method in brief: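 Viability, as % of DMSO control, was read by CellTiter-Glo luminescence after a 3-day compound exposure (single dose of 10 μM or 1 μM) at 37 °C. Cells plated at 4,000/well in RPMI 1640 with 10% FBS. Results reported as categories A <10%, B 10–<25%, C 25–<50%, D ≥50%.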

H23 cells = assay: Cell viability assay (CELLTITER-GLO), H23 cells; conditions: Table 4; 3 days
Method in brief: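 Luminescent CellTiter-Glo readout after 3-day compound treatment (37° C, 5% CO2) of H23 cells plated at 4,000 cells/well in RPMI 1640 plus 10% FBS, DMSO as control. IC50 values given as categorical ranges.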

H358 cells = assay: Cell viability assay (CELLTITER-GLO), H358 cells; conditions: Table 4; 3 days
Method in brief: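 Luminescent ATP read-out (CellTiter-Glo) after 3-day incubation at 37 °C of H358 cells plated at 4,000/well in RPMI 1640 with 10% FBS. Values are either IC50 bins (A ≤1 μM through D >10 μM) or % of DMSO viability at 10 μM or 1 μM, bins A <10% through D ≥50%.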

| Structure (SMILES) | Inhibition of H358 cells, IC50 (class) (H358 cells) | viability at 10 µM (MOLM-13 cells) | Inhibition of H23 cells, IC50 (class) (H23 cells) | Effect on MOLM-13 cell viability (% DMSO) (MOLM-13 cells) |
| --- | --- | --- | --- | --- |
| C=C(Cl)C(=O)N1CCN(c2ncnc3c(F)c(-c4c(F)cccc4OCCC4CCC(CCN5CCC(c6cc(F)cc7c6CN(C6CCC(=O)NC6=O)C7=O)CC5)CC4)c(Cl)cc23)CC1 (stereo not drawn) [Compound 116, 3-(4-(1-(2-(4-(2-(2-(6-Chloro-4-(4-(2-chloroacryloyl)piperazin-1-yl)-8-fluoroquinazolin-7-yl)-3-fluorophenoxy)ethyl)cyclohexyl)ethyl)piperidin-4-yl)-6-fluoro-1-oxoisoindolin-2-yl)piperidine-2,6-dione] | A′ |  | A′ | A (“A” represents a % viability value of less than 10%) |
| C=C(Cl)C(=O)N1CCN(c2ncnc3c(F)c(-c4c(F)cccc4OC[C@H]4CC[C@H](CN5CCC(c6cc(F)cc7c6CN(C6CCC(=O)NC6=O)C7=O)CC5)CC4)c(Cl)cc23)CC1 (stereo partly drawn) [Compound 117, 3-(4-(1-(((1r,4r)-4-((2-(6-Chloro-4-(4-(2-chloroacryloyl)piperazin-1-yl)-8-fluoro-quinazolin-7-yl)-3-fluorophenoxy)methyl)cyclohexyl)methyl)piperidin-4-yl)-6-fluoro-1-oxoisoindolin-2-yl)piperidine-2,6-dione] | A′ | < 10% | A′ |  |
| C=C(Cl)C(=O)N1CCN(c2ncnc3c(F)c(-c4c(F)cccc4OCCC4CCC(CN5CCC(c6cc(F)cc7c6CN(C6CCC(=O)NC6=O)C7=O)CC5)CC4)c(Cl)cc23)CC1 (stereo not drawn) [Compound 118, 3-(4-(1-((4-(2-(2-(6-Chloro-4-(4-(2-chloroacryloyl)piperazin-1-yl)-8-fluoroquinazolin-7-yl)-3-fluorophenoxy)ethyl)cyclohexyl)methyl)piperidin-4-yl)-6-fluoro-1-oxoisoindolin-2-yl)piperidine-2,6-dione] | A′ | < 10% | A′ |  |
| C=C(Cl)C(=O)N1CCN(c2ncnc3c(F)c(-c4c(F)cccc4OCCCCCCCN4CCCC(c5cc6c(cc5F)C(=O)N(C5CCC(=O)NC5=O)C6)C4)c(Cl)cc23)CC1 (stereo not drawn) [Compound 119, 3-(5-(1-(7-(2-(6-Chloro-4-(4-(2-chloroacryloyl)piperazin-1-yl)-8-fluoroquinazolin-7-yl)-3-fluorophenoxy)heptyl)piperidin-3-yl)-6-fluoro-1-oxoisoindolin-2-yl)piperidine-2,6-dione] | B′ | < 10% | A′ |  |
| C=C(Cl)C(=O)N1CCN(c2ncnc3c(F)c(-c4c(F)cccc4OCCCCCCCN4CCC(c5cc6c(cc5F)C(=O)N(C5CCC(=O)NC5=O)C6)CC4)c(Cl)cc23)C[C@H]1CC#N (stereo partly drawn) [Compound 123, 2-((2R)-4-(6-Chloro-7-(2-((7-(4-(2-(2,6-dioxopiperidin-3-yl)-6-fluoro-1-oxoisoindolin-5-yl)piperidin-1-yl)heptyl)oxy)-6-fluorophenyl)-8-fluoroquinazolin-4-yl)-1-(2-chloroacryloyl)-piperazin-2-yl)acetonitrile] | A′ | < 10% | A′ |  |
| C=C(Cl)C(=O)N1CCN(c2nc(=O)n(-c3ccc(CCCCCCCN4CCC(c5cc(F)cc6c5CN(C5CCC(=O)NC5=O)C6=O)CC4)cc3C(C)C)c3nc(-c4c(O)cccc4F)c(F)cc23)[C@@H](C)C1 (stereo partly drawn) [Compound 126, 3-(4-(1-(7-(4-(4-((S)-4-(2-Chloroacryloyl)-2-methylpiperazin-1-yl)-6-fluoro-7-(2-fluoro-6-hydroxyphenyl)-2-oxopyrido[2,3-d]pyrimidin-1(2H)-yl)-3-isopropylphenyl)heptyl)piperidin-4-yl)-6-fluoro-1-oxoisoindolin-2-yl)piperidine-2,6-dione] | B′ | < 10% | B′ |  |
| C=C(Cl)C(=O)N1CCN(c2ncnc3c(F)c(-c4c(F)cccc4OC[C@H]4CC[C@@H](CN5CCC(c6cc(F)cc7c6CN(C6CCC(=O)NC6=O)C7=O)CC5)CC4)c(Cl)cc23)CC1 (stereo partly drawn) [Compound 127, 3-(4-(1-(((1s,4s)-4-((2-(6-Chloro-4-(4-(2-chloroacryloyl)piperazin-1-yl)-8-fluoro-quinazolin-7-yl)-3-fluorophenoxy)methyl)cyclohexyl)methyl)piperidin-4-yl)-6-fluoro-1-oxoisoindolin-2-yl)piperidine-2,6-dione] | A′ | < 10% | A′ |  |
| C=C(Cl)C(=O)N1CCN(c2nc(OC[C@@H]3CCCN3C)nc3c(F)c(-c4c(F)cccc4OCCCCCCCN4CCC(c5cc(F)cc6c5CN(C5CCC(=O)NC5=O)C6=O)CC4)c(Cl)cc23)C[C@H]1CC#N (stereo partly drawn) [Compound 128, 2-((2R)-4-(6-Chloro-7-(2-((7-(4-(2-(2,6-dioxopiperidin-3-yl)-6-fluoro-1-oxoisoindolin-4-yl)piperidin-1-yl)heptyl)oxy)-6-fluorophenyl)-8-fluoro-2-(((S)-1-methylpyrrolidin-2-yl)methoxy)quinazolin-4-yl)-1-(2-chloroacryloyl)piperazin-2-yl)acetonitrile] | A′ | < 10% | A′ |  |

The next lines start with results.

| Inhibition of H358 cells, IC50 (class) (H358 cells) | Structure (SMILES) | viability at 10 µM (MOLM-13 cells) | Inhibition of H23 cells, IC50 (class) (H23 cells) | Effect on MOLM-13 cell viability (% DMSO) (MOLM-13 cells) |
| --- | --- | --- | --- | --- |
| B′ | C=C(Cl)C(=O)N1CCN(c2nc(OCCN(C)C)nc3c(F)c(-c4c(F)cccc4OCCCCCCCN4CCC(c5cc(F)cc6c5CN(C5CCC(=O)NC5=O)C6=O)CC4)c(Cl)cc23)CC1 (stereo not drawn) [Compound 115, 3-(4-(1-(7-(2-(6-Chloro-4-(4-(2-chloroacryloyl)piperazin-1-yl)-2-(2-(dimethylamino)-ethoxy)-8-fluoroquinazolin-7-yl)-3-fluorophenoxy)heptyl)piperidin-4-yl)-6-fluoro-1-oxoisoindolin-2-yl)piperidine-2,6-dione] | < 10% | A′ |  |
| B′ | C=C(Cl)C(=O)N1CCN(c2ncnc3c(F)c(-c4c(F)cccc4OCCN4CCC(CCN5CCC(c6cc(F)cc7c6CN(C6CCC(=O)NC6=O)C7=O)CC5)CC4)c(Cl)cc23)CC1 (stereo not drawn) [Compound 120, 3-(4-(1-(2-(1-(2-(2-(6-Chloro-4-(4-(2-chloroacryloyl)piperazin-1-yl)-8-fluoroquinazolin-7-yl)-3-fluorophenoxy)ethyl)piperidin-4-yl)ethyl)piperidin-4-yl)-6-fluoro-1-oxoisoindolin-2-yl)piperidine-2,6-dione] | < 10% | B′ |  |
| B′ | C=C(Cl)C(=O)N1CCN(c2ncnc3c(F)c(-c4c(F)cccc4OCCCN4CCC(c5cc(F)cc6c5CN(C5CCC(=O)NC5=O)C6=O)CC4)c(Cl)cc23)CC1 (stereo not drawn) [Compound 121, 3-(4-(1-(3-(2-(6-Chloro-4-(4-(2-chloroacryloyl)piperazin-1-yl)-8-fluoroquinazolin-7-yl)-3-fluorophenoxy)propyl)piperidin-4-yl)-6-fluoro-1-oxoisoindolin-2-yl)piperidine-2,6-dione] | < 10% | B′ |  |
| A′ | C=C(Cl)C(=O)N1CCN(c2nc(=O)n(-c3c(C)ccnc3C(C)C)c3nc(-c4c(F)cccc4OCCCCCCCN4CCC(c5cc(F)cc6c5CN(C5CCC(=O)NC5=O)C6=O)CC4)c(F)cc23)[C@@H](C)C1 (stereo partly drawn) [Compound 122, 3-(4-(1-(7-(2-(4-((S)-4-(2-Chloroacryloyl)-2-methylpiperazin-1-yl)-6-fluoro-1-(2-isopropyl-4-methylpyridin-3-yl)-2-oxo-1,2-dihydropyrido[2,3-d]pyrimidin-7-yl)-3-fluorophenoxy)heptyl)piperidin-4-yl)-6-fluoro-1-oxoisoindolin-2-yl)piperidine-2,6-dione] | < 10% | A′ |  |
| A′ | C=CC(=O)N1CCN(c2nc(=O)n(-c3c(C)ccnc3C(C)C)c3nc(-c4c(F)cccc4OCCCCCCCN4CCC(c5cc(F)cc6c5CN(C5CCC(=O)NC5=O)C6=O)CC4)c(F)cc23)[C@@H](C)C1 (stereo partly drawn) [Compound 124, 3-(4-(1-(7-(2-(4-((S)-4-Acryloyl-2-methylpiperazin-1-yl)-6-fluoro-1-(2-isopropyl-4-methylpyridin-3-yl)-2-oxo-1,2-dihydropyrido[2,3-d]pyrimidin-7-yl)-3-fluorophenoxy)heptyl)-piperidin-4-yl)-6-fluoro-1-oxoisoindolin-2-yl)piperidine-2,6-dione] | < 10% | B′ |  |
| B′ | C=C(Cl)C(=O)N1C[C@@H]2C(=O)N(CCCCCCCN3CCC(c4cc(F)cc5c4CN(C4CCC(=O)NC4=O)C5=O)CC3)c3cnc4c(F)c(-c5c(O)cccc5F)c(Cl)cc4c3N2C[C@H]1C (stereo partly drawn) [Compound 125, 3-(4-(1-(7-((2R,4aR)-11-Chloro-3-(2-chloroacryloyl)-9-fluoro-10-(2-fluoro-6-hydroxyphenyl)-2-methyl-5-oxo-1,2,3,4,4a,5-hexahydro-6H-pyrazino[1′,2′:4,5]pyrazino[2,3-c]quinolin-6-yl)heptyl)piperidin-4-yl)-6-fluoro-1-oxoisoindolin-2-yl)piperidine-2,6-dione] | < 10% | B′ |  |
